The term pKi denotes −log10 of the Ki, conventionally taken in molar units.

pKi: −log10 of the molar value.

The source of these data is US20010036952A1, “Small molecule pipecolic acid derivative hair growth compositions and uses” (GPI NIL Holdings, Inc., priority 1997, published 2001).

Sequence of FKBP12 (P62942 whole entry, species assumed): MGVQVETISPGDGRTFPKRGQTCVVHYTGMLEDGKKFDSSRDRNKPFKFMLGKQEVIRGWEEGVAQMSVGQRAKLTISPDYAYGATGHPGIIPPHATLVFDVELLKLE

The first assay relates to hair growth.
Test: not given
Conditions: topical, but not oral, application; cited from earlier work.
With `C=CC[C@@H]1/C=C(\C)C[C@H](C)C[C@H](OC)[C@H]2O[C@@](O)(C(=O)C(=O)N3CCCC[C@H]3C(=O)O[C@H](/C(C)=C/[C@@H]3CC[C@@H](O)[C@H](OC)C3)[C@H](C)[C@@H](O)CC1=O)[C@H](C)C[C@@H]2OC` [FK506], the “stimulation of hair growth (in words)” value was “stimulates hair growth in a dose-dependent manner”.

For the next assay, the target named is FKBP12 (Homo sapiens, UniProt P62942). Kind of assay: Ki test procedure: inhibition of peptidyl-prolyl isomerase (rotamase) activity, chymotrypsin-coupled assay. It counts as biochemical. Conditions: FKBP rotamase, substrate N-succinyl-Ala-Ala-Pro-Phe-p-nitroanilide; read-out: Ki (apparent Ki, rotamase inhibition). An excerpt:
The inhibition of the prolyl peptidyl cis-trans isomerase activity of FKBP may be measured as an indicator of this affinity.
Inhibition of the peptidyl-prolyl isomerase (rotamase) activity of the compounds used in the inventive methods and pharmaceutical compositions can be evaluated by known methods described in the literature (Harding et al., Nature, 1989, 341:758-760; Holt et al. J. Am. Chem. Soc., 115:9923-9938).
The cis-trans isomerization of an alanine-proline bond in a model substrate, N-succinyl-Ala—Ala—Pro—Phe- p-nitroanilide, is monitored spectrophotometrically in a chymotrypsin-coupled assay, which releases para-nitroanilide from the trans form of the substrate. The inhibition of this reaction caused by the addition of different concentrations of inhibitor is determined, and the data is analyzed as a change in first-order rate constant as a function of inhibitor concentration to yield the apparent Ki values.
In a plastic cuvette are added […] of ice cold assay buffer (25 mM HEPES, pH 7.8, 100 mM NaCl), […] of FKBP (2.5 mM in 10 mM Tris-Cl pH 7.5, 100 mM NaCl, 1 mM dithiothreitol), […] of chymotrypsin (50 mg/ml in 1 mM HCl) and […] of test compound at various concentrations in dimethyl sulfoxide. The reaction is initiated by the addition of 5 mL of substrate (succinyl-Ala—Phe—Pro—Phe-para-nitroanilide, 5 mg/mL in 2.35 mM LiCl in trifluoroethanol).
The absorbance at 390 nm versus time is monitored for 90 seconds using a spectrophotometer and the rate constants are determined from the absorbance versus time data files.
Turning to `O=C(C(=O)N1CCCCC1C(=O)OCc1ccccc1)c1ccccc1` (centres unmarked) [Compound 10], the pKi was 5.82.

For `O=C(C(=O)N1CCCCC1C(=O)OCCCCc1ccccc1)c1ccccc1` (centres unmarked) [Compound 13], the pKi is 6.46. Take `O=C(C(=O)N1CCCCC1C(=O)OCCc1ccccc1)c1ccccc1` (centres unmarked) [Compound 14]: the pKi is 5.96. In the case of `O=C(C(=O)N1CCCCC1C(=O)OCCCCC1CCCCC1)c1ccccc1` (centres unmarked) [Compound 15], the pKi is 6.40. Turning to `COC(=O)C(=O)N1CCCCC1C(=O)OCc1ccccc1` (centres unmarked) [Compound 16], the negative-log Ki (pKi) is 4.10. Turning to `O=C(C(=O)N1CCCCC1C(=O)OCc1ccccc1)c1ccco1` (centres unmarked) [Compound 20], the pKi is 5.52. `COc1cc(C(=O)C(=O)N2CCCCC2C(=O)OCCCCc2ccccc2)cc(OC)c1OC` (centres unmarked) [Compound 23]: the negative-log Ki (pKi) was 7.72.
